Results from the OligoGym collection.
HELM strings list units from the 5' end as sugar, base in round brackets, then linkage (d deoxyribose, r ribose, m 2'-O-methyl, p phosphodiester). Strings are as the collection lists them, not checked against the first reports. ss, as = sense and antisense strand; [lna] = locked nucleic acid (LNA); [hna] = hexitol nucleic acid; [fl2r] = 2'-fluoro

Conditions: siRNA
Further: test system not given here.

Substance	target mRNA knockdown
RNA1{r(G)p.r(A)p.r(C)p.r(G)p.r(U)p.r(A)p.r(A)p.r(A)p.r(C)p.r(G)p.r(G)p.r(C)p.r(C)p.r(A)p.r(C)p.r(A)p.r(A)p.r(G)p.[hna](U)p.[hna](U)p.r(C)}|RNA2{r(A)p.r(C)p.r(U)p.r(U)p.r(G)p.r(U)p.r(G)p.r(G)p.r(C)p.r(C)p.r(G)p.r(U)p.r(U)p.r(U)p.r(A)p.r(C)p.r(G)p.r(U)p.r(C)p.r(G)p.r(C)}$$$RNA1{StrandType:ss}|RNA2{StrandType:as}$	88.7%
RNA1{r(G)p.r(A)p.r(C)p.r(G)p.r(U)p.r(A)p.r(A)p.r(A)p.r(C)p.r(G)p.r(G)p.r(C)p.r(C)p.r(A)p.r(C)p.r(A)p.r(A)p.r(G)p.r(U)p.[lna](T)p.[lna](C)}|RNA2{[fl2r](A)p.m(C)p.[fl2r](U)p.m(U)p.[fl2r](G)p.m(U)p.[fl2r](G)p.m(G)p.[fl2r](C)p.m(C)p.[fl2r](G)p.m(U)p.[fl2r](U)p.m(U)p.[fl2r](A)p.m(C)p.[fl2r](G)p.m(U)p.[fl2r](C)p.m(G)p.[fl2r](C)}$$$RNA1{StrandType:ss}|RNA2{StrandType:as}$	81.2%
RNA1{r(G)p.r(A)p.r(C)p.r(G)p.r(U)p.r(A)p.r(A)p.r(A)p.r(C)p.r(G)p.r(G)p.r(C)p.r(C)p.r(A)p.r(C)p.r(A)p.r(A)p.r(G)p.r(U)p.[lna](T)p.[lna](C)}|RNA2{r(A)p.m(C)p.r(U)p.r(U)p.r(G)p.r(U)p.r(G)p.r(G)p.r(C)p.r(C)p.r(G)p.r(U)p.r(U)p.r(U)p.r(A)p.r(C)p.r(G)p.r(U)p.r(C)p.r(G)p.r(C)}$$$RNA1{StrandType:ss}|RNA2{StrandType:as}$	81%
RNA1{r(G)p.r(A)p.r(C)p.r(G)p.r(U)p.r(A)p.r(A)p.r(A)p.r(C)p.r(G)p.r(G)p.r(C)p.r(C)p.r(A)p.r(C)p.r(A)p.r(A)p.r(G)p.r(U)p.[lna](T)p.[lna](C)}|RNA2{r(A)p.r(C)p.[lna](T)p.r(U)p.r(G)p.[lna](T)p.r(G)p.r(G)p.r(C)p.r(C)p.r(G)p.r(U)p.r(U)p.[lna](T)p.r(A)p.r(C)p.r(G)p.[lna](T)p.r(C)p.[lna](G)p.[lna](C)}$$$RNA1{StrandType:ss}|RNA2{StrandType:as}$	3%
RNA1{r(G)p.r(A)p.r(C)p.r(G)p.r(U)p.r(A)p.r(A)p.r(A)p.r(C)p.r(G)p.r(G)p.r(C)p.r(C)p.r(A)p.r(C)p.r(A)p.r(A)p.r(G)p.r(U)p.[lna](T)p.[lna](C)}|RNA2{r(A)p.r(C)p.r(U)p.r(U)p.r(G)p.r(U)p.r(G)p.r(G)p.r(C)p.r(C)p.r(G)p.r(U)p.r(U)p.r(U)p.r(A)p.r(C)p.r(G)p.r(U)p.[lna](C)p.[lna](G)p.r(C)}$$$RNA1{StrandType:ss}|RNA2{StrandType:as}$	86.7%
RNA1{r(G)p.r(A)p.r(C)p.r(G)p.r(U)p.r(A)p.r(A)p.r(A)p.r(C)p.r(G)p.r(G)p.r(C)p.r(C)p.r(A)p.r(C)p.r(A)p.r(A)p.r(G)p.r(U)p.[lna](T)p.[lna](C)}|RNA2{r(A)p.r(C)p.r(U)p.r(U)p.r(G)p.r(U)p.r(G)p.r(G)p.r(C)p.r(C)p.r(G)p.r(U)p.r(U)p.r(U)p.r(A)p.r(C)p.r(G)p.r(U)p.r(C)p.r(G)p.r(C)}$$$RNA1{StrandType:ss}|RNA2{StrandType:as}$	87.4%
RNA1{r(G)p.r(A)p.r(C)p.r(G)p.r(U)p.r(A)p.r(A)p.r(A)p.r(C)p.r(G)p.r(G)p.r(C)p.r(C)p.r(A)p.r(C)p.r(A)p.r(A)p.r(G)p.r(U)p.r(U)p.r(C)}|RNA2{[fl2r](A)p.m(C)p.[fl2r](U)p.m(U)p.[fl2r](G)p.m(U)p.[fl2r](G)p.m(G)p.[fl2r](C)p.m(C)p.[fl2r](G)p.m(U)p.[fl2r](U)p.m(U)p.[fl2r](A)p.m(C)p.[fl2r](G)p.m(U)p.[fl2r](C)p.m(G)p.[fl2r](C)}$$$RNA1{StrandType:ss}|RNA2{StrandType:as}$	73.8%
RNA1{r(G)p.r(A)p.r(C)p.r(G)p.r(U)p.r(A)p.r(A)p.r(A)p.r(C)p.r(G)p.r(G)p.r(C)p.r(C)p.r(A)p.r(C)p.r(A)p.r(A)p.r(G)p.r(U)p.r(U)p.r(C)}|RNA2{r(A)p.m(C)p.r(U)p.r(U)p.r(G)p.r(U)p.r(G)p.r(G)p.r(C)p.r(C)p.r(G)p.r(U)p.r(U)p.r(U)p.r(A)p.r(C)p.r(G)p.r(U)p.r(C)p.r(G)p.r(C)}$$$RNA1{StrandType:ss}|RNA2{StrandType:as}$	76%
RNA1{r(G)p.r(A)p.r(C)p.r(G)p.r(U)p.r(A)p.r(A)p.r(A)p.r(C)p.r(G)p.r(G)p.r(C)p.r(C)p.r(A)p.r(C)p.r(A)p.r(A)p.r(G)p.r(U)p.r(U)p.r(C)}|RNA2{r(A)p.r(C)p.[lna](T)p.r(U)p.r(G)p.[lna](T)p.r(G)p.r(G)p.r(C)p.r(C)p.r(G)p.r(U)p.r(U)p.[lna](T)p.r(A)p.r(C)p.r(G)p.[lna](T)p.r(C)p.[lna](G)p.[lna](C)}$$$RNA1{StrandType:ss}|RNA2{StrandType:as}$	0%
RNA1{r(G)p.r(A)p.r(C)p.r(G)p.r(U)p.r(A)p.r(A)p.r(A)p.r(C)p.r(G)p.r(G)p.r(C)p.r(C)p.r(A)p.r(C)p.r(A)p.r(A)p.r(G)p.r(U)p.r(U)p.r(C)}|RNA2{r(A)p.r(C)p.r(U)p.r(U)p.r(G)p.r(U)p.r(G)p.r(G)p.r(C)p.r(C)p.r(G)p.r(U)p.r(U)p.r(U)p.r(A)p.r(C)p.r(G)p.r(U)p.[lna](C)p.[lna](G)p.r(C)}$$$RNA1{StrandType:ss}|RNA2{StrandType:as}$	86.3%
RNA1{r(G)p.r(A)p.r(C)p.r(G)p.r(U)p.r(A)p.r(A)p.r(A)p.r(C)p.r(G)p.r(G)p.r(C)p.r(C)p.r(A)p.r(C)p.r(A)p.r(A)p.r(G)p.r(U)p.r(U)p.r(T)}|RNA2{r(A)p.r(C)p.r(U)p.r(U)p.r(G)p.r(U)p.r(G)p.[hna](G)p.r(C)p.r(C)p.r(G)p.r(U)p.r(U)p.[hna](U)p.r(A)p.r(C)p.r(G)p.[hna](U)p.[hna](C)p.[hna](G)p.r(T)}$$$RNA1{StrandType:ss}|RNA2{StrandType:as}$	87%
RNA1{r(G)p.r(A)p.r(G)p.[fl2r](U)p.r(A)p.r(U)p.r(U)p.r(U)p.r(C)p.r(C)p.r(G)p.r(C)p.[fl2r](U)p.r(G)p.r(G)p.r(A)p.r(A)p.r(C)p.r(U)p.r(T)p.r(T)}|RNA2{r(A)p.r(G)p.r(U)p.r(U)p.r(C)p.[fl2r](C)p.r(A)p.r(G)p.r(C)p.r(G)p.r(G)p.r(A)p.r(A)p.r(A)p.[fl2r](U)p.r(A)p.r(C)p.r(U)p.r(C)p.r(T)p.r(T)}$$$RNA1{StrandType:ss}|RNA2{StrandType:as}$	73%
RNA1{r(G)p.r(A)p.r(G)p.[fl2r](U)p.r(A)p.r(U)p.r(U)p.r(U)p.r(C)p.r(C)p.r(G)p.r(C)p.r(U)p.r(G)p.r(G)p.r(A)p.r(A)p.r(C)p.r(U)p.r(T)p.r(T)}|RNA2{r(A)p.r(G)p.r(U)p.r(U)p.r(C)p.r(C)p.r(A)p.r(G)p.r(C)p.r(G)p.r(G)p.r(A)p.r(A)p.r(A)p.[fl2r](U)p.r(A)p.r(C)p.r(U)p.r(C)p.r(T)p.r(T)}$$$RNA1{StrandType:ss}|RNA2{StrandType:as}$	75%
RNA1{r(G)p.r(A)p.r(G)p.r(A)p.r(G)p.r(A)p.r(G)p.r(A)p.r(C)p.r(G)p.r(G)p.m(U)p.m(G)p.r(G)p.r(A)p.r(A)p.r(G)p.r(A)p.r(A)p.r(T)p.r(T)}|RNA2{r(U)p.r(U)p.r(C)p.r(U)p.r(U)p.r(C)p.m(C)p.r(A)p.r(C)p.r(C)p.r(G)p.r(U)p.r(C)p.r(U)p.r(C)p.r(U)p.r(C)p.r(U)p.r(C)p.r(T)p.r(T)}$$$RNA1{StrandType:ss}|RNA2{StrandType:as}$	72%
RNA1{r(G)p.r(A)p.r(G)p.r(A)p.r(G)p.r(A)p.r(G)p.r(A)p.r(C)p.r(G)p.r(G)p.r(U)p.r(G)p.r(G)p.r(A)p.r(A)p.r(G)p.r(A)p.r(A)p.r(T)p.r(T)}|RNA2{r(U)p.r(U)p.r(C)p.r(U)p.r(U)p.r(C)p.r(C)p.m(A)p.r(C)p.r(C)p.r(G)p.r(U)p.r(C)p.r(U)p.r(C)p.r(U)p.r(C)p.r(U)p.r(C)p.r(T)p.r(T)}$$$RNA1{StrandType:ss}|RNA2{StrandType:as}$	74%
RNA1{r(G)p.r(A)p.r(G)p.r(G)p.r(A)p.m(U)p.r(G)p.r(G)p.r(A)p.r(U)p.r(U)p.r(C)p.r(G)p.m(A)p.r(C)p.r(U)p.m(U)p.r(A)p.r(G)p.r(T)p.r(T)}|RNA2{r(C)p.m(U)p.r(A)p.r(A)p.m(G)p.r(U)p.r(C)p.r(G)p.r(A)p.r(A)p.r(U)p.r(C)p.m(C)p.r(A)p.r(U)p.r(C)p.r(C)p.r(U)p.r(C)p.r(T)p.r(T)}$$$RNA1{StrandType:ss}|RNA2{StrandType:as}$	91%
RNA1{r(G)p.r(A)p.r(G)p.r(G)p.r(A)p.r(A)p.r(G)p.r(A)p.m(U)p.r(G)p.r(A)p.r(G)p.r(U)p.m(U)p.r(G)p.m(U)p.r(A)p.r(C)p.r(C)p.r(T)p.r(T)}|RNA2{r(G)p.r(G)p.r(U)p.r(A)p.m(C)p.r(A)p.r(A)p.r(C)p.r(U)p.m(C)p.r(A)p.r(U)p.r(C)p.r(U)p.r(U)p.r(C)p.r(C)p.r(U)p.r(C)p.r(T)p.r(T)}$$$RNA1{StrandType:ss}|RNA2{StrandType:as}$	76%
RNA1{r(G)p.r(A)p.r(G)p.r(G)p.r(A)p.r(A)p.r(G)p.r(A)p.m(U)p.r(G)p.r(A)p.r(G)p.r(U)p.r(U)p.r(G)p.r(U)p.r(A)p.r(C)p.r(C)p.r(T)p.r(T)}|RNA2{r(G)p.r(G)p.r(U)p.r(A)p.m(C)p.r(A)p.r(A)p.r(C)p.r(U)p.m(C)p.r(A)p.r(U)p.r(C)p.r(U)p.r(U)p.r(C)p.r(C)p.r(U)p.r(C)p.r(T)p.r(T)}$$$RNA1{StrandType:ss}|RNA2{StrandType:as}$	77%
RNA1{r(G)p.r(A)p.r(G)p.r(G)p.r(A)p.r(U)p.r(G)p.r(G)p.r(A)p.r(U)p.r(U)p.r(C)p.r(G)p.r(A)p.r(C)p.r(U)p.r(U)p.r(A)p.r(G)p.r(T)p.r(T)}|RNA2{r(C)p.m(U)p.r(A)p.r(A)p.r(G)p.r(U)p.r(C)p.r(G)p.r(A)p.r(A)p.r(U)p.r(C)p.r(C)p.r(A)p.r(U)p.r(C)p.r(C)p.r(U)p.r(C)p.r(T)p.r(T)}$$$RNA1{StrandType:ss}|RNA2{StrandType:as}$	94%
RNA1{r(G)p.r(A)p.r(U)p.r(A)p.r(G)p.r(G)p.r(A)p.r(A)p.r(G)p.r(G)p.r(G)p.r(G)p.r(C)p.r(U)p.r(U)p.r(C)p.r(A)p.r(G)p.r(C)p.r(T)p.r(T)}|RNA2{r(G)p.m(C)p.m(U)p.r(G)p.r(A)p.r(A)p.r(G)p.m(C)p.m(C)p.m(C)p.m(C)p.m(U)p.m(U)p.m(C)p.m(C)p.m(U)p.r(A)p.m(U)p.m(C)p.r(T)p.r(T)}$$$RNA1{StrandType:ss}|RNA2{StrandType:as}$	12%
